# Experimental data: patent US6489268B1, “Highly selective herbicidal phenoxypropionic acid alkoxycarbonyl anilid compounds and method of preparing the same” (Dongbu Hannong Chemical Co., Ltd., priority 1999, dated 2002)
# Columns and labels:
# Assay in all cases: Leaf treatment test (post-emergence spray, % damage)
# Assay type in all cases: in vivo
# Conditions in all cases: 14 days after treatment, vs untreated control
# [1] = test system: Echinochloa crus-galli Beauv. var. caudata Kitagawa (Barnyard grass, ECHCG)
# Protocol: (§1) Seeds of rice, wheat, barley, corn, cotton, barnyard grass, common sorgum, large crabgrass and fall panicum were seeded at a pot with a surface area of 600 cm. When barnyard grass kept at 20˜30° C. had three leaves, wettable powders prepared by mixing 1 weight part of the active compound, 5 weight part of acetone and 1 weight part of emulsifier and diluting with water was applied directly on the leaves in 2000 l per hectare. The concentration of the spray liquid was so chosen the particular amounts of the active compound desired. 14 days after the treatment, the degree of damage to the plants was rated in % damage in comparison to the development of untreated control. 0% no action (like untreated control) 20% slight effect 70% herbicidal effect 100% total destruction [table]
# [2] = test system: Oryza sativa L. cv. Dongjin (Rice, ORYSA)
# Protocol: as §1
# [3] = test system: Glydne max (L.) MERR (Soy bean, GLXMA)
# Protocol: [The procedure below names another organism; the source lists this organism under the same test.] as §1
# [4] = test system: Zea mays L. (Corn, ZEAMX)
# Protocol: as §1
# [5] = test system: Digitaria Sanguinalis (L.) SCOP (Large crabgrass, DIGSA)
# Protocol: as §1
# [6] = test system: Gossypium (Cotton, GOSHI)
# Protocol: as §1
# [7] = test system: Triticum aestivum L. (Wheat, TRZAW)
# Protocol: as §1
# [8] = test system: Andropogon sorghum (Common sorgum, SORBI)
# Protocol: as §1
# [9] = test system: Panicum dichotomiflorum Michx (Fall panicum, PANDI)
# Protocol: as §1
smiles,measurement,setting,value
COC(=O)c1cccc(NC(=O)C(C)Oc2ccc(Oc3nc4ccc(Cl)cc4o3)cc2)c1 (stereo not drawn) [Compound 1],"degree of damage to the plants, ECHCG",[1]; 15 g/ha,0%
same,"degree of damage to the plants, ECHCG",[1]; 30 g/ha,80%
same,"degree of damage to the plants, ECHCG",[1]; 60 g/ha,100%
same,"degree of damage to the plants, ECHCG",[1]; 125 g/ha,100%
same,"degree of damage to the plants, ECHCG",[1]; 250 g/ha,100%
same,"degree of damage to the plants, ECHCG",[1]; 500 g/ha,100%
same,"degree of damage to the plants, ECHCG",[1]; 1000 g/ha,100%
same,"degree of damage to the plants, ORYSA",[2]; 15 g/ha,0%
same,"degree of damage to the plants, ORYSA",[2]; 30 g/ha,0%
same,"degree of damage to the plants, ORYSA",[2]; 60 g/ha,0%
same,"degree of damage to the plants, ORYSA",[2]; 125 g/ha,0%
same,"degree of damage to the plants, ORYSA",[2]; 250 g/ha,10%
same,"degree of damage to the plants, ORYSA",[2]; 500 g/ha,20%
same,"degree of damage to the plants, ORYSA",[2]; 1000 g/ha,30%
CCOC(=O)c1cccc(NC(=O)C(C)Oc2ccc(Oc3nc4ccc(Cl)cc4o3)cc2)c1 (stereo not drawn) [Compound 2],"degree of damage to the plants, ECHCG",[1]; 0.004 kg/ha,90%
same,"degree of damage to the plants, ECHCG",[1]; 0.016 kg/ha,100%
same,"degree of damage to the plants, ECHCG",[1]; 0.063 kg/ha,100%
same,"degree of damage to the plants, ECHCG",[1]; 1 kg/ha,100%
same,"degree of damage to the plants, ECHCG",[1]; 15 g/ha,8%
same,"degree of damage to the plants, ECHCG",[1]; 025 kg/ha,100%
same,"degree of damage to the plants, ECHCG",[1]; 30 g/ha,100%
same,"degree of damage to the plants, ECHCG",[1]; 60 g/ha,100%
same,"degree of damage to the plants, ECHCG",[1]; 125 g/ha,100%
same,"degree of damage to the plants, ECHCG",[1]; 250 g/ha,100%
same,"degree of damage to the plants, ECHCG",[1]; 500 g/ha,100%
same,"degree of damage to the plants, ECHCG",[1]; 1000 g/ha,100%
same,"degree of damage to the plants, GLXMA",[3]; 0.004 kg/ha,0%
same,"degree of damage to the plants, GLXMA",[3]; 0.016 kg/ha,0%
same,"degree of damage to the plants, GLXMA",[3]; 0.063 kg/ha,0%
same,"degree of damage to the plants, GLXMA",[3]; 1 kg/ha,0%
same,"degree of damage to the plants, GLXMA",[3]; 025 kg/ha,0%
same,"degree of damage to the plants, ZEMAX",[4]; 0.004 kg/ha,0%
same,"degree of damage to the plants, ZEMAX",[4]; 0.016 kg/ha,0%
same,"degree of damage to the plants, ZEMAX",[4]; 0.063 kg/ha,20%
same,"degree of damage to the plants, ZEMAX",[4]; 1 kg/ha,100%
same,"degree of damage to the plants, ZEMAX",[4]; 025 kg/ha,100%
same,"degree of damage to the plants, ORYSA",[2]; 0.004 kg/ha,0%
same,"degree of damage to the plants, ORYSA",[2]; 0.016 kg/ha,0%
same,"degree of damage to the plants, ORYSA",[2]; 0.063 kg/ha,0%
same,"degree of damage to the plants, ORYSA",[2]; 1 kg/ha,40%
same,"degree of damage to the plants, ORYSA",[2]; 15 g/ha,0%
same,"degree of damage to the plants, ORYSA",[2]; 025 kg/ha,40%
same,"degree of damage to the plants, ORYSA",[2]; 30 g/ha,0%
same,"degree of damage to the plants, ORYSA",[2]; 60 g/ha,0%
same,"degree of damage to the plants, ORYSA",[2]; 125 g/ha,0%
same,"degree of damage to the plants, ORYSA",[2]; 250 g/ha,15%
same,"degree of damage to the plants, ORYSA",[2]; 500 g/ha,35%
same,"degree of damage to the plants, ORYSA",[2]; 1000 g/ha,45%
same,"degree of damage to the plants, DIGSA",[5]; 0.004 kg/ha,95%
same,"degree of damage to the plants, DIGSA",[5]; 0.016 kg/ha,100%
same,"degree of damage to the plants, DIGSA",[5]; 0.063 kg/ha,100%
same,"degree of damage to the plants, DIGSA",[5]; 1 kg/ha,100%
same,"degree of damage to the plants, DIGSA",[5]; 025 kg/ha,100%
same,"degree of damage to the plants, GOSHI",[6]; 0.004 kg/ha,0%
same,"degree of damage to the plants, GOSHI",[6]; 0.016 kg/ha,0%
same,"degree of damage to the plants, GOSHI",[6]; 0.063 kg/ha,0%
same,"degree of damage to the plants, GOSHI",[6]; 1 kg/ha,0%
same,"degree of damage to the plants, GOSHI",[6]; 025 kg/ha,0%
same,"degree of damage to the plants, TRZAW",[7]; 0.004 kg/ha,0%
same,"degree of damage to the plants, TRZAW",[7]; 0.016 kg/ha,0%
same,"degree of damage to the plants, TRZAW",[7]; 0.063 kg/ha,0%
same,"degree of damage to the plants, TRZAW",[7]; 1 kg/ha,40%
same,"degree of damage to the plants, TRZAW",[7]; 025 kg/ha,20%
same,"degree of damage to the plants, SORBI",[8]; 0.004 kg/ha,40%
same,"degree of damage to the plants, SORBI",[8]; 0.016 kg/ha,100%
same,"degree of damage to the plants, SORBI",[8]; 0.063 kg/ha,100%
same,"degree of damage to the plants, SORBI",[8]; 1 kg/ha,100%
same,"degree of damage to the plants, SORBI",[8]; 025 kg/ha,100%
same,"degree of damage to the plants, PANDI",[9]; 0.004 kg/ha,95%
same,"degree of damage to the plants, PANDI",[9]; 0.016 kg/ha,100%
same,"degree of damage to the plants, PANDI",[9]; 0.063 kg/ha,100%
same,"degree of damage to the plants, PANDI",[9]; 1 kg/ha,100%
same,"degree of damage to the plants, PANDI",[9]; 025 kg/ha,100%
CCOC(=O)c1cccc(N(C)C(=O)C(C)Oc2ccc(Oc3nc4ccc(Cl)cc4o3)cc2)c1 (stereo not drawn) [Compound 3],"degree of damage to the plants, ECHCG",[1]; 15 g/ha,0%
same,"degree of damage to the plants, ECHCG",[1]; 30 g/ha,0%
same,"degree of damage to the plants, ECHCG",[1]; 60 g/ha,20%
same,"degree of damage to the plants, ECHCG",[1]; 125 g/ha,90%
same,"degree of damage to the plants, ECHCG",[1]; 250 g/ha,100%
same,"degree of damage to the plants, ECHCG",[1]; 500 g/ha,100%
same,"degree of damage to the plants, ECHCG",[1]; 1000 g/ha,100%
same,"degree of damage to the plants, ORYSA",[2]; 15 g/ha,0%
same,"degree of damage to the plants, ORYSA",[2]; 30 g/ha,0%
same,"degree of damage to the plants, ORYSA",[2]; 60 g/ha,0%
same,"degree of damage to the plants, ORYSA",[2]; 125 g/ha,0%
same,"degree of damage to the plants, ORYSA",[2]; 250 g/ha,0%
same,"degree of damage to the plants, ORYSA",[2]; 500 g/ha,0%
same,"degree of damage to the plants, ORYSA",[2]; 1000 g/ha,0%
COC(=O)c1ccc(NC(=O)C(C)Oc2ccc(Oc3nc4ccc(Cl)cc4o3)cc2)cc1 (stereo not drawn) [Compound 4],"degree of damage to the plants, ECHCG",[1]; 0.025 kg/ha,100%
same,"degree of damage to the plants, ECHCG",[1]; 0.1 kg/ha,100%
same,"degree of damage to the plants, GLXMA",[3]; 0.025 kg/ha,0%
same,"degree of damage to the plants, GLXMA",[3]; 0.1 kg/ha,0%
same,"degree of damage to the plants, ZEAMX",[4]; 0.025 kg/ha,0%
same,"degree of damage to the plants, ZEAMX",[4]; 0.1 kg/ha,0%
same,"degree of damage to the plants, ORYSA",[2]; 0.025 kg/ha,0%
same,"degree of damage to the plants, ORYSA",[2]; 0.1 kg/ha,30%
same,"degree of damage to the plants, DIGSA",[5]; 0.025 kg/ha,100%
same,"degree of damage to the plants, DIGSA",[5]; 0.1 kg/ha,100%
same,"degree of damage to the plants, GOSHI",[6]; 0.025 kg/ha,0%
same,"degree of damage to the plants, GOSHI",[6]; 0.1 kg/ha,0%
same,"degree of damage to the plants, TRZAW",[7]; 0.025 kg/ha,0%
same,"degree of damage to the plants, TRZAW",[7]; 0.1 kg/ha,0%
same,"degree of damage to the plants, SORBI",[8]; 0.025 kg/ha,70%
same,"degree of damage to the plants, SORBI",[8]; 0.1 kg/ha,100%
same,"degree of damage to the plants, PANDI",[9]; 0.025 kg/ha,80%
same,"degree of damage to the plants, PANDI",[9]; 0.1 kg/ha,100%
CCOC(=O)c1ccc(NC(=O)C(C)Oc2ccc(Oc3nc4ccc(Cl)cc4o3)cc2)cc1 (stereo not drawn) [Compound 5],"degree of damage to the plants, ECHCG",[1]; 0.025 kg/ha,95%
same,"degree of damage to the plants, ECHCG",[1]; 0.1 kg/ha,100%
same,"degree of damage to the plants, GLXMA",[3]; 0.025 kg/ha,0%
same,"degree of damage to the plants, GLXMA",[3]; 0.1 kg/ha,20%
same,"degree of damage to the plants, ZEAMX",[4]; 0.025 kg/ha,0%
same,"degree of damage to the plants, ZEAMX",[4]; 0.1 kg/ha,30%
same,"degree of damage to the plants, ORYSA",[2]; 0.025 kg/ha,0%
same,"degree of damage to the plants, ORYSA",[2]; 0.1 kg/ha,40%
same,"degree of damage to the plants, DIGSA",[5]; 0.025 kg/ha,100%
same,"degree of damage to the plants, DIGSA",[5]; 0.1 kg/ha,100%
same,"degree of damage to the plants, GOSHI",[6]; 0.025 kg/ha,0%
same,"degree of damage to the plants, GOSHI",[6]; 0.1 kg/ha,0%
same,"degree of damage to the plants, TRZAW",[7]; 0.025 kg/ha,0%
same,"degree of damage to the plants, TRZAW",[7]; 0.1 kg/ha,20%
same,"degree of damage to the plants, SORBI",[8]; 0.025 kg/ha,95%
same,"degree of damage to the plants, SORBI",[8]; 0.1 kg/ha,100%
same,"degree of damage to the plants, PANDI",[9]; 0.025 kg/ha,95%
same,"degree of damage to the plants, PANDI",[9]; 0.1 kg/ha,100%
